Experiments:
[1] = tested on: total NAD in PBMCs; experiment: NAD measurement in PBMCs, NADMed method; format: in vivo, human
Text: In addition to these analyses, we measured NAD levels in patient PBMC using a different approach (NADMed method). […] However, the trend was clear and convincing.
FIG. 16: NAD measurement in PBMCs from the study cohort, using the NADMed method.

[2] = tested on: cerebral NAD; experiment: 31P-MRS of the brain, phase I trial of oral NR in newly diagnosed PD patients; format: in vivo, human
Protocol: A trial of tolerability and cerebral bioavailability of NAD supplementation therapy with nicotinamide riboside (“NR”), provided in the form of nicotinamide riboside chloride ([…]® from Chromadex) in PD patients was completed. In the trial, 30 individuals with newly diagnosed, drug naïve PD were randomized and given NR 500 mg×2/day or placebo for a period of 30 days. 31P-MRS was performed at baseline (Visit 1) and at on the last day of treatment (Visit 2). The scans of 27 individuals passed quality control at both visits. A single-center, double-blinded, randomized, placebo-controlled phase I trial of oral NR supplementation in newly diagnosed patients with PD was conducted. […] Due to the early onset, this patient underwent genetic investigation with whole-exome sequencing and SNP-chip based genome-wide copy number variation analysis, which excluded pathogenic mutations in PD-related genes, including PINK1 and PRKN. screening. Patient recruitment, inclusion, and follow-up was carried out by a GCP certified investigator. Sample size of 30 participants was chosen based on previously reported brain metabolic network analyses. Thirty PD patients were randomly assigned (Block size 6, allocation 1:1) to 500 mg NR, provided in the form of nicotinamide riboside chloride ([…]® from Chromadex), or placebo twice per day, 12 hours apart, using the electronic Case Report Form (Viedoc.com). The drug containers were sequentially marked by an independent third party. The […]®) and placebo were provided by ChromaDex, USA. Each NR capsule contained 250 mg of NR. Placebo capsules contained microcrystalline cellulose. The vials and capsules containing NR and placebo were identical in shape, colour, and smell. Study drug compliance was calculated from counting returned number of study capsules and self-reporting. Participants, examining physicians, medical- and research personnel were blinded for the duration of the trial. Sample size was determined by comparing previous literature with respect to the primary objective. At screening for trial entry, candidates underwent physical and neurological examination, brain MRI, and […]. Eligible patients who entered the trial were assessed at baseline (visit 1, V1) and after four weeks of exposure to either NR or placebo (visit 2, V2). At both visits, patients underwent physical and neurological examination, including assessment by the Movement Disorder Society Unified Parkinson's Disease Rating Scale section I-IV (MDS-UPDRS), and biological sampling. MR-PET was performed within one week prior to visit 1, and at visit 2. All participants remained naïve for antiparkinson drugs for the duration of the trial. All clinical assessments were performed by a blinded movement disorders expert. Each patient was examined by the same neurologist at both visits. Methodological details on each procedure are provided below. Safety was monitored through routine clinical blood tests and registration of adverse events. Adverse events (AE) were recorded and scored by the investigative physician. […] The AE relation to the study drug was scored as (1) unrelated, (2) unlikely, (3) possible, (4) probable or (5) definitely. MRI/S was conducted on a 3T Biograph mMR MR-PET scanner (Siemens Healthcare, Germany). Phosphorous MRS (31P-MRS) was performed on a double-resonant transmit/receive 1H/31P volume head-coil (Rapid Biomedical, Germany). […]

[3] = tested on: healthy individuals; details: cited from earlier work
[4] = tested on: rats; details: rat, in vivo; cited from earlier work

## NC(=O)c1ccc[n+]([C@@H]2O[C@H](CO)[C@@H](O)[C@H]2O)c1 [NR, nicotinamide riboside]
[1]; NR group, did not reach statistical significance in paired t-test
  NAD levels in PBMC, between visits: increase
[1]; p=0.0256
  between visit change in PBMC NAD levels, NR vs placebo group: significantly higher increase
[2]; NR group n=13, oral NR 500 mg x2/day, 30 days, paired t-test p=0.016
  cerebral NAD levels normalized to ATP-α, visit 2 vs baseline: highly significant increase
[2]; NR group, 30 days
  other metabolites detected by 31P-MRS, change between visits: No other detected metabolites exhibited significant change
[2]; NR recipients with MRS data, 30 days
  patients showing an increase in cerebral NAD (MRS-responders): 10/13
[2]; of the 10 MRS-responders among 13 NR recipients
  patients with cerebral NAD change exceeding 10% of baseline levels: 9
[2]; oral NR 500 mg x2/day, 30 days, t-test p=0.025
  between visit change (visit 2/visit 1) in NAD/ATP-α ratio, NR vs placebo group: significantly higher
[3]; Trammell et al. 2016
  oral bioavailability in humans: good oral bioavailability
[3]; healthy individuals, oral 1000 mg NR daily
  total levels of NAD and related metabolites in blood and muscle: substantially elevates
[4]
  non-lethal oral dose: ≥ 5000 mg/kg

Source: patent US20240366648A1, “NAD-AUGMENTATION THERAPY FOR PARKINSON'S DISEASE” (Vestlandets Innovasjonsselskap AS (VIS), priority 2021, published 2024)
